One series deals with T1, SST2 (Homo sapiens, UniProt P30874).
T1 construct: expressed in transfected cells; host or cells: CHO (Chinese hamster ovary) cells
In words: Determination of IC50: competitive binding against [125I]TOC on SST2-transfected CHO cells. The following applies: [125I]TOC reference radioligand, 60 min room temperature. As to the method:
The SST2-transfected CHO cells were cultivated in Dulbecco's Modified Eagle Medium/Nutrient Mixture F-12 (DMEM/F-12) with Glutamax-I (1:1) (Gibco), supplemented with 10% fetal calf serum (FCS) and maintained at 37° C. in a humidified 5% CO2 atmosphere. […] After removal of the culture medium, the cells were treated once with 300 μL of HBSS-B (Hank's balanced salt solution, Biochrom, Berlin, Germany, with addition of 1% bovine serum albumin (BSA)) and left with 200 μL HBSS-B. Next, 25 μL per well of solutions, containing either HBSS-B (control) or the respective ligand in increasing concentration (10^−10-10^−4 M in HBSS-B, were added with subsequent addition of 25 μL of
[^125I]TOC ([^125I]Tyr^3-Octreotide) (1.0 nM) in HBSS-B. Each concentration is investigated in triplicate. After 60 min incubation at room temperature, the experiment was terminated by removal of the assay medium and consecutive rinsing with 300 μL of cold PBS. The media of both steps were combined in one fraction and represent the amount of unbound radioligand.
Afterwards, the cells were lysed with 300 μL of 1 M NaOH and united with the 300 μL 1 M NaOH of the following wash step. Quantification of bound and unbound radioligand was accomplished in a γ-counter.

Series [1] can be described thus: Biodistribution of 18F-labeled SST2 ligands in AR42J tumor-bearing mice. Format: in vivo. The following applies: female, CD1 nu/nu, mouse, iv, total radioactivity, 1 h post injection. As to the method: All animal experiments were conducted in accordance with general animal welfare regulations in Germany and the institutional guidelines for the care and use of animals. To establish tumor xenografts, AR42J cells (5×10^6 cells/100 μL) were suspended in Dulbecco modified Eagle medium/Nutrition Mixture F-12 with Glutamax-1 (1:1) and inoculated subcutaneously onto the right shoulder of 8 weeks old, female CD1 nu/nu mice (Charles River, Sulzfeld, Germany). Mice were used for experiments when tumors had grown to a diameter of 5-9 mm (7-15 days after inoculation).
Approximately 0.5-2.0 MBq (0.05-0.25 nmol) of the ^18F-labeled SST2-ligands were injected into the tail vein of AR42J tumor-bearing female CD1 nu/nu mice and sacrificed after 1 h post injection (n=3-5). Selected organs were removed, weighted and measured in a γ-counter.
The Tables 4, 5, and 6 summarize the results of the in vivo mouse experiments. For all biodistribution studies, female CD1 nu/nu mice with AR42J tumor xenografts, were used and sacrificed 1 h post injection.

The mark [2] stands for this setting: AR42J tumor, AR42J tumor, tail vein, read-out: Tumor % ID/g ± SD.
Where [3] appears, read: adrenal glands, tail vein, read-out: Adrenal glands % ID/g ± SD.
[4] abbreviates: blood, tail vein, read-out: Blood % ID/g ± SD.
The mark [5] stands for this setting: bone, tail vein, read-out: Bone % ID/g ± SD.
The mark [6] stands for this setting: heart, tail vein, read-out: Heart % ID/g ± SD.
Where [7] appears, read: intestine, tail vein, read-out: Intestine % ID/g ± SD.
[8] abbreviates: kidneys, tail vein, read-out: Kidneys % ID/g ± SD.
The mark [9] stands for this setting: liver, tail vein, read-out: Liver % ID/g ± SD.
Where [10] appears, read: lung, tail vein, read-out: Lung % ID/g ± SD.
[11] abbreviates: muscle, tail vein, read-out: Muscle % ID/g ± SD.
The mark [12] stands for this setting: pancreas, tail vein, read-out: Pancreas % ID/g ± SD.
[13] abbreviates: spleen, tail vein, read-out: Spleen % ID/g ± SD.
The mark [14] stands for this setting: stomach, tail vein, read-out: Stomach % ID/g ± SD.

Like-named read-outs stand apart in the source and are kept apart here.

T1 sequence (P30874 whole entry, species assumed): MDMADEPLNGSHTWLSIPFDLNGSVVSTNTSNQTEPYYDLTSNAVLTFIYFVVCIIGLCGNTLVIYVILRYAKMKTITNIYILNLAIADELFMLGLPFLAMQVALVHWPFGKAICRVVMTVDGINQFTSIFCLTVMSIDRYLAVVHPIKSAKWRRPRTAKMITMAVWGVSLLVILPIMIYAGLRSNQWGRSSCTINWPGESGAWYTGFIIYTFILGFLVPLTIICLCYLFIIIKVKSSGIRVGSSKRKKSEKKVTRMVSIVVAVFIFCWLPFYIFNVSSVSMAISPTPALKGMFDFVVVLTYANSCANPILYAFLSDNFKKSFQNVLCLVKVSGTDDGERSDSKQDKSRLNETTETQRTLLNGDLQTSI

In general, IC50 refers to the concentration at which inhibition is half-maximal. Higher therefore signals a need for much substance. Regarding `C[C@@H](O)[C@H](NC(=O)C1CSSCC(NC(=O)C(Cc2ccccc2)NC(=O)CNC(=O)CNC(=O)[C@@H](CC(=O)O)NC(=O)C(CC(=O)O)NC(=O)[C@@H](CNC(=O)CN2CCN(CC(=O)O)CCN(CC(=O)O)CCN(CC(=O)O)CC2)NC(=O)C[N+](C)(C)Cc2ccc([Si](F)(C(C)(C)C)C(C)(C)C)cc2)C(=O)N[C@@H](Cc2ccc(O)cc2)C(=O)NC(Cc2c[nH]c3ccccc23)C(=O)N[C@@H](CCCCN)C(=O)N[C@@H]([C@@H](C)O)C(=O)N1)C(=O)O` (stereo partly drawn) (natGa complex, metal not drawn) [[Ga]24], the IC50 on SST2 was 9.48 ± 1.96 nM. For the same molecule, the tissue uptake at 1 h amounted to 23.9 ± 4.1 %ID/g in series [1] (setting [2]); 6.1 ± 0.02 %ID/g in series [1] (AR42J tumor, AR42J tumor, Blocking study, read-out: Tumor % ID/g ± SD); 1.52 ± 0.46 %ID/g in series [1] (setting [3]); 0.54 ± 0.05 %ID/g in series [1] (adrenal glands, Blocking study, read-out: Adrenal glands % ID/g ± SD); 0.66 ± 0.32 %ID/g in series [1] (setting [4]); 1.24 ± 0.61 %ID/g in series [1] (blood, Blocking study, read-out: Blood % ID/g ± SD). The tissue uptake at 1 h in series [1] (setting [5]) was 1.32 ± 0.19 %ID/g; in series [1] (bone, Blocking study, read-out: Bone % ID/g ± SD), 0.77 ± 0.07 %ID/g; in series [1] (setting [6]) it was 0.34 ± 0.09 %ID/g; in series [1] (heart, Blocking study, read-out: Heart % ID/g ± SD) it was 0.53 %ID/g; in series [1] (setting [7]), 1.41 ± 0.19 %ID/g; in series [1] (intestine, Blocking study, read-out: Intestine % ID/g ± SD) it was 0.71 ± 0.04 %ID/g. In addition, the tissue uptake at 1 h stood at 13.6 ± 3.58 %ID/g in series [1] (setting [8]); 18.2 ± 2.03 %ID/g in series [1] (kidneys, Blocking study, read-out: Kidneys % ID/g ± SD); 1.05 ± 0.22 %ID/g in series [1] (setting [9]); 1.82 ± 0.22 %ID/g in series [1] (liver, Blocking study, read-out: Liver % ID/g ± SD); 2.33 ± 0.1 %ID/g in series [1] (setting [10]); 1.36 ± 0.13 %ID/g in series [1] (lung, Blocking study, read-out: Lung % ID/g ± SD). Moreover, the tissue uptake at 1 h in series [1] (setting [11]) was 0.09 ± 0.04 %ID/g; in series [1] (muscle, Blocking study, read-out: Muscle % ID/g ± SD) it was 0.21 ± 0.01 %ID/g; in series [1] (setting [12]), 9.28 ± 0.57 %ID/g; in series [1] (pancreas, Blocking study, read-out: Pancreas % ID/g ± SD), 1.07 ± 0.02 %ID/g; in series [1] (setting [13]) it was 0.45 ± 0.05 %ID/g; in series [1] (spleen, Blocking study, read-out: Spleen % ID/g ± SD), 0.33 %ID/g. In addition, the tissue uptake at 1 h in series [1] (setting [14]) stood at 4.95 ± 0.35 %ID/g; in series [1] (stomach, Blocking study, read-out: Stomach % ID/g ± SD) it was 1.01 ± 0.06 %ID/g.

`C[C@@H](O)[C@H](NC(=O)C1CSSCC(NC(=O)C(Cc2ccccc2)NC(=O)CNC(=O)CNC(=O)CNC(=O)C(CC(=O)O)NC(=O)[C@@H](CC(=O)O)NC(=O)C(CCCCN)NC(=O)[C@@H](CNC(=O)C[N+](C)(C)Cc2ccc([Si](F)(C(C)(C)C)C(C)(C)C)cc2)NC(=O)CN2CCN(CC(=O)O)CCN(CC(=O)O)CCN(CC(=O)O)CC2)C(=O)N[C@@H](Cc2ccc(O)cc2)C(=O)NC(Cc2c[nH]c3ccccc23)C(=O)N[C@@H](CCCCN)C(=O)N[C@@H]([C@@H](C)O)C(=O)N1)C(=O)O` (stereo partly drawn) (natGa complex, metal not drawn) [[Ga]45]: the IC50 on SST2 worked out at 4.3 ± 0.06 nM. For the same molecule, the tissue uptake at 1 h amounted to 31.6 ± 4.96 %ID/g in series [1] (setting [2]); 1.54 ± 0.28 %ID/g in series [1] (setting [3]); 0.53 ± 0.23 %ID/g in series [1] (setting [4]); 1.81 ± 0.07 %ID/g in series [1] (setting [5]); 0.28 ± 0.04 %ID/g in series [1] (setting [6]); 1.27 ± 0.13 %ID/g in series [1] (setting [7]). Moreover, the tissue uptake at 1 h came out at 72.7 ± 7.68 %ID/g in series [1] (setting [8]); 1.28 ± 0.11 %ID/g in series [1] (setting [9]); 3.34 ± 0.49 %ID/g in series [1] (setting [10]); 0.11 ± 0.02 %ID/g in series [1] (setting [11]); 11.8 ± 1.36 %ID/g in series [1] (setting [12]); 0.56 ± 0.1 %ID/g in series [1] (setting [13]). In series [1] (setting [14]), the tissue uptake at 1 h is 7.5 ± 0.13 %ID/g.

The molecule `C[C@@H](O)[C@H](NC(=O)C1CSSCC(NC(=O)C(Cc2ccccc2)NC(=O)CNC(=O)CNC(=O)CNC(=O)C(CC(=O)O)NC(=O)[C@@H](CC(=O)O)NC(=O)C(CCCNC(N)=O)NC(=O)[C@@H](CNC(=O)C[N+](C)(C)Cc2ccc([Si](F)(C(C)(C)C)C(C)(C)C)cc2)NC(=O)CN2CCN(CC(=O)O)CCN(CC(=O)O)CCN(CC(=O)O)CC2)C(=O)N[C@@H](Cc2ccc(O)cc2)C(=O)NC(Cc2c[nH]c3ccccc23)C(=O)N[C@@H](CCCCN)C(=O)N[C@@H]([C@@H](C)O)C(=O)N1)C(=O)O` (stereo partly drawn) (natGa complex, metal not drawn) [[Ga]46] returned an IC50 on SST2 of 4.79 ± 0.84 nM. For the same molecule, the tissue uptake at 1 h turned out to be 23.4 ± 1.07 %ID/g in series [1] (setting [2]); 1.71 ± 0.38 %ID/g in series [1] (setting [3]); 0.57 ± 0.24 %ID/g in series [1] (setting [4]); 1.21 ± 0.24 %ID/g in series [1] (setting [5]); 0.3 ± 0.04 %ID/g in series [1] (setting [6]); 1.43 ± 0.35 %ID/g in series [1] (setting [7]). Besides, the tissue uptake at 1 h in series [1] (setting [8]) stood at 12.6 ± 1.58 %ID/g; in series [1] (setting [9]) it was 0.83 ± 0.14 %ID/g; in series [1] (setting [10]), 3.22 ± 0.53 %ID/g; in series [1] (setting [11]), 0.1 ± 0.02 %ID/g; in series [1] (setting [12]) it was 11.1 ± 2.61 %ID/g; in series [1] (setting [13]) it was 0.57 ± 0.14 %ID/g. For the same molecule, in series [1] (setting [14]), the tissue uptake at 1 h is 6.51 ± 1.64 %ID/g.

In the case of `C[C@@H](O)[C@H](NC(=O)C1CSSCC(NC(=O)C(Cc2ccccc2)NC(=O)CNC(=O)CNC(=O)[C@@H](CC(=O)O)NC(=O)C(CC(=O)O)NC(=O)[C@@H](CNC(=O)CN2CCN(CC(=O)O)CCN(CC(=O)O)CCN(CC(=O)O)CC2)NC(=O)C(CN)NC(=O)c2ccc([Si](F)(C(C)(C)C)C(C)(C)C)cc2)C(=O)N[C@@H](Cc2ccc(O)cc2)C(=O)NC(Cc2c[nH]c3ccccc23)C(=O)N[C@@H](CCCCN)C(=O)N[C@@H]([C@@H](C)O)C(=O)N1)C(=O)O` (stereo partly drawn) (natGa complex, metal not drawn) [[Ga]19], the IC50 at SST2 was determined as 11.2 ± 1.04 nM. Moreover, the tissue uptake at 1 h was 36.3 ± 4.54 %ID/g in series [1] (setting [2]); 2.56 ± 0.21 %ID/g in series [1] (setting [3]); 2.24 ± 0.3 %ID/g in series [1] (setting [4]); 1.96 ± 0.38 %ID/g in series [1] (setting [5]); 0.88 ± 0.11 %ID/g in series [1] (setting [6]); 1.39 ± 0.24 %ID/g in series [1] (setting [7]). The tissue uptake at 1 h stood at 131 ± 26.7 %ID/g in series [1] (setting [8]); 2.47 ± 0.14 %ID/g in series [1] (setting [9]); 4.84 ± 0.98 %ID/g in series [1] (setting [10]); 0.27 ± 0.04 %ID/g in series [1] (setting [11]); 12.5 ± 1.87 %ID/g in series [1] (setting [12]); 0.93 ± 0.15 %ID/g in series [1] (setting [13]). The tissue uptake at 1 h in series [1] (setting [14]) was 7.99 ± 2.08 %ID/g.

Source of the values: patent publication US20240317780A1, “RADIOPHARMACEUTICAL SOMATOSTATIN RECEPTOR LIGANDS AND PRECURSORS THEREOF” (Technische Universität München, priority 2021, published 2024).
